Assay results from PMC4282596 (Psychopharmacology, 2014).

Target: T1, 5-HT2C receptor (Homo sapiens, UniProt P28335)
T1 sequence (P28335 33-458): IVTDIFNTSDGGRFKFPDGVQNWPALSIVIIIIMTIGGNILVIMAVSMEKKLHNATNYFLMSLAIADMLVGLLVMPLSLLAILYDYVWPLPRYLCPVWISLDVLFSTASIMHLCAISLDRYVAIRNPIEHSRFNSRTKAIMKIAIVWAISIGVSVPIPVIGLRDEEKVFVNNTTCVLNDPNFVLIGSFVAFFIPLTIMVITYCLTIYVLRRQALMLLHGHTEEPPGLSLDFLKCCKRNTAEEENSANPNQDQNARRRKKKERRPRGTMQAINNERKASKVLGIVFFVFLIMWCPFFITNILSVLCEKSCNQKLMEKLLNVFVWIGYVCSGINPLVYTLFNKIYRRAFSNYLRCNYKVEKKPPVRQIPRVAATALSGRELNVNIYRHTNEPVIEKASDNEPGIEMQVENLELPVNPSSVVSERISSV
Assay: […]DOI radioligand competition binding on HEK-h5HT2C cell homogenate

SMILES: CC(C)N(CCc1c[nH]c2ccccc12)C(C)C [DiPT]
- Ki: 290 ± 110 nM
